Target: ATX (human His-tagged) (Homo sapiens (Human), UniProt Q13822)
Assay: Human ATX enzyme inhibition assay (fluorescence quenching, MR121 substrate)
Format: biochemical
Settings: 30 nM ATX, 1 μM MR121 substrate, 30° C., pH 8.0
Method: Human ATX Enzyme Inhibition Assay
ATX inhibition was measured by a fluorescence quenching assay using a specifically labeled substrate analogue (MR121 substrate). To obtain this MR121 substrate, BOC and TBS protected 6-amino-hexanoic acid (R)-3-({2-[3-(2-{2-[2-(2-amino-ethoxy)-ethoxy]-ethoxy}-ethoxy)-propionylamino]-ethoxy}-hydroxy-phosphoryloxy)-2-hydroxy-propyl ester (Ferguson et al., Org Lett 2006, 8 (10), 2023) was labeled with MR121 fluorophore (CAS 185308-24-1, 1-(3-carboxypropyl)-11-ethyl-1,2,3,4,8,9,10,11-octahydro-dipyrido[3,2-b:2′,3′-i]phenoxazin-13-ium) on the free amine of the ethanolamine side and then, after deprotection, subsequently with tryptophan on the side of the aminohexanoic acid.
Assay working solutions were made as follows:
Assay buffer (50 mM Tris-HCl, 140 mM NaCl, 5 mM KCl, 1 mM CaCl2, 1 mM MgCl2, 0.01% Triton-X-100, pH 8.0;
ATX solution: ATX (human His-tagged) stock solution (1.08 mg/mL in 20 mM bicine, pH 8.5, 0.15 M NaCl, 10% glycerol, 0.3% CHAPS, 0.02% NaN3), diluted to 1.4-2.5× final concentration in assay buffer;
MR121 substrate solution: MR121 substrate stock solution (800 μM MR121 substrate in DMSO), diluted to 2-5× final concentration in assay buffer.
Test compounds (10 mM stock in DMSO, 8 μL) were obtained in 384 well sample plates (Corning Costar #3655) and diluted with 8 μL DMSO. Row-wise serial dilutions were made by transferring 8 μL cpd solution to the next row up to row O. The compound and control solutions were mixed five times and 2 μL were transferred to 384 well assay plates (Corning Costar #3702). Then, 15 μL of 41.7 nM ATX solution was added (30 nM final concentration), mixed five times and then incubated for 15 minutes at 30° C. 10 μL of MR121 substrate solution was added (1 μM final concentration), mixed 30 times and then incubated for 15 minutes at 30′C.

Row | IC50 | SMILES
1 | 0.008 µM | COCCOc1cc(C(=O)N2C[C@@H]3[C@H]4CN(C(=O)c5ccc6[nH]nnc6c5)C[C@H]4[C@@H]3C2)nc2ccccc12 [Example 1.069, [(3aR,3bS,6aR,6bS)-5-(1H-benzotriazole-5-carbonyl)-octahydro-cyclobuta[1,2-c;3,4-c′]dipyrrol-2-yl]-[4-(2-methoxy-ethoxy)-quinolin-2-yl]-methanone]
2 | 0.064 µM | O=C(c1ccc(-c2ccc(F)cc2)cc1)N1C[C@@H]2[C@H](C1)[C@H]1CN(C(=O)c3ccc4[nH]nnc4c3)C[C@@H]21 [Example 1.002, [(3aS,3bS,6aR,6bR)-5-(1H-benzotriazole-5-carbonyl)-octahydro-cyclobuta[1,2-c;3,4-c′]dipyrrol-2-yl]-(4′-fluoro-biphenyl-4-yl)-methanone]
3 | 0.0077 µM | COCCOc1nc(C(=O)N2C[C@@H]3[C@H]4CN(C(=O)c5ccc6[nH]nnc6c5)C[C@H]4[C@@H]3C2)cc2ccccc12 [Example 1.057, [(3aR,3bS,6aR,6bS)-5-(1H-benzotriazole-5-carbonyl)-octahydro-cyclobuta[1,2-c;3,4-c′]dipyrrol-2-yl]-[1-(2-methoxy-ethoxy)-isoquinoline-3-yl]-methanone]
4 | 0.017 µM | CCOc1cc(C(=O)N2C[C@@H]3[C@H](C2)[C@H]2CN(C(=O)c4ccc5[nH]nnc5n4)C[C@@H]32)nc2ccc(C(F)(F)F)cc12 [Example 1.091, [(3aS,3bS,6aR,6bR)-5-(4-ethoxy-6-trifluoromethyl-quinoline-2-carbonyl)-octahydro-cyclobuta[1,2-c;3,4-c′]dipyrrol-2-yl]-(1H-[1,2,3]triazolo[4,5-b]pyridin-5-yl)-methanone]
5 | 0.0405 µM | CC(C)Oc1cc(C(=O)N2C[C@@H]3[C@H]4CN(C(=O)c5ccc6[nH]nnc6c5)C[C@H]4[C@@H]3C2)cc2[nH]ccc12 [Example 1.061, [(3aS,3bS,6aR,6bR)-5-(1H-benzotriazole-5-carbonyl)-octahydro-cyclobuta[1,2-c;3,4-c′]dipyrrol-2-yl]-(4-isopropoxy-1H-indol-6-yl)-methanone]
6 | 0.006 µM | O=C(c1cc2ccc(OC(F)(F)F)cc2[nH]1)N1C[C@@H]2[C@H](C1)[C@H]1CN(C(=O)[C@@H]3CCc4[nH]nnc4C3)C[C@@H]21 [Example 1.020, [(3aR,3bS,6aR,6bS)-5-((R)-4,5,6,7-tetrahydro-1H-benzotriazole-5-carbonyl)-octahydro-cyclobuta[1,2-c;3,4-c′]dipyrrol-2-yl]-(6-trifluoromethoxy-1H-indol-2-yl)-methanone]
7 | 0.153 µM | CCOc1cc(C(=O)N2C[C@@H]3[C@H]4CN(C(=O)c5ccc(S(N)(=O)=O)nc5)C[C@H]4[C@@H]3C2)nc2ccccc12 [Example 1.083, 5-[(3aS,3bR,6aS,6bR)-5-(4-ethoxy-quinoline-2-carbonyl)-octahydro-cyclobuta[1,2-c;3,4-c′]dipyrrole-2-carbonyl]-pyridine-2-sulfonic acid amide]
8 | 0.0413 µM | CCOc1cc(C(=O)N2C[C@@H]3[C@H]4CN(C(=O)c5ccc6[nH]nnc6c5)C[C@H]4[C@@H]3C2)nc2c1CCCC2 [Example 1.088]
9 | 0.0047 µM | O=C(c1ccc2[nH]nnc2c1)N1C[C@@H]2[C@H](C1)[C@H]1CN(C(=O)c3cc4ccccc4c(OCC(F)(F)F)n3)C[C@@H]21 [Example 1.060, [(3aR,3bS,6aR,6bS)-5-(1H-benzotriazole-5-carbonyl)-octahydro-cyclobuta[1,2-c;3,4-c′]dipyrrol-2-yl]-[1-(2,2,2-trifluoro-ethoxy)-isoquinolin-3-yl]-methanone]
10 | 0.005 µM | CC(C)Oc1cc(C(=O)N2C[C@@H]3[C@H]4CN(C(=O)c5ccc6[nH]nnc6c5)C[C@H]4[C@@H]3C2)nc2ccccc12 [Example 1.067, [(3aR,3bS,6aR,6bS)-5-(1H-benzotriazole-5-carbonyl)-octahydro-cyclobuta[1,2-c;3,4-c′]dipyrrol-2-yl]-(4-isopropoxy-quinolin-2-yl)-methanone]
11 | 0.0027 µM | CCOc1cc(C(=O)N2C[C@@H]3[C@H]4CN(C(=O)c5ccc6[nH]nnc6c5)C[C@H]4[C@@H]3C2)cc2c1ccn2CC(F)(F)F [Example 1.085, (1H-benzotriazol-5-yl)-{(3aS,3bS,6aR,6bR)-5-[4-ethoxy-1-(2,2,2-trifluoro-ethyl)-1H-indole-6-carbonyl]-octahydro-cyclobuta[1,2-c;3,4-c′]dipyrrol-2-yl}-methanone]
12 | 0.265 µM | COc1cc2ccccc2cc1C(=O)N1C[C@@H]2[C@H]3CN(C(=O)c4ccc5[nH]nnc5c4)C[C@H]3[C@@H]2C1 [Example 1.021, [(3aS,3bS,6aR,6bR)-5-(1H-benzotriazole-5-carbonyl)-octahydro-cyclobuta[1,2-c;3,4-c′]dipyrrol-2-yl]-(3-methoxy-naphthalen-2-yl)-methanone]
13 | 0.0325 µM | CCOc1cc(C(=O)N2C[C@@H]3[C@H](C2)[C@H]2CN(C(=O)c4ccc5[nH]nnc5c4F)C[C@@H]32)nc2ccccc12 [Example 1.110, [(3aS,3bR,6aS,6bR)-5-(4-ethoxy-quinoline-2-carbonyl)-octahydro-cyclobuta[1,2-c;3,4-c′]dipyrrol-2-yl]-(4-fluoro-1H-benzotriazol-5-yl)-methanone]
14 | 0.014 µM | O=C(c1ccc2[nH]nnc2c1)N1C[C@@H]2[C@H](C1)[C@H]1CN(C(=O)c3cc(OCc4ccccc4)c4cc[nH]c4c3)C[C@@H]21 [Example 1.053, [(3aS,3bS,6aR,6bR)-5-(1H-benzotriazole-5-carbonyl)-octahydro-cyclobuta[1,2-c;3,4-c′]dipyrrol-2-yl]-(4-benzyloxy-1H-indol-6-yl)-methanone]
15 | 0.005 µM | CCn1ccc2c(OC(C)C)cc(C(=O)N3C[C@@H]4[C@H]5CN(C(=O)c6ccc7[nH]nnc7c6)C[C@H]5[C@@H]4C3)cc21 [Example 1.074, [(3aS,3bS,6aR,6bR)-5-(1H-benzotriazole-5-carbonyl)-octahydro-cyclobuta[1,2-c;3,4-c′]dipyrrol-2-yl]-(1-ethyl-4-isopropoxy-1H-indol-6-yl)-methanone]
16 | 0.029 µM | COCCCN1CC(C(=O)N2C[C@@H]3[C@H]4CN(C(=O)c5ccc6[nH]nnc6c5)C[C@H]4[C@@H]3C2)Cc2ccccc21 (stereo partly drawn) [Example 1.056, [(3aS,3bR,6aS,6bR)-5-(1H-benzotriazole-5-carbonyl)-octahydro-cyclobuta[1,2-c;3,4-c′]dipyrrol-2-ylH1-(3-methoxy-propyl)-1,2,3,4-tetrahydro-quinolin-3-yl]-methanone]
17 | 0.0035 µM | CCOc1nc(C(=O)N2C[C@@H]3[C@H]4CN(C(=O)c5ccc6[nH]nnc6c5)C[C@H]4[C@@H]3C2)cc2ccccc12 [Example 1.073, [(3aR,3bS,6aR,6bS)-5-(1H-benzotriazole-5-carbonyl)-octahydro-cyclobuta[1,2-c;3,4-c′]dipyrrol-2-yl]-(1-ethoxy-isoquinolin-3-yl)-methanone]

Row | SMILES | IC50
18 | O=C(c1ccc2[nH]nnc2c1)N1CC2C(C1)C1CN(C(=O)c3cc(OCC(F)(F)F)c(C4CC4)nn3)CC21 (stereo not shown) [Example 1.095] | 0.032 µM
19 | O=C(c1cnc(OCC(F)(F)F)c(C2CC2)c1)N1C[C@@H]2[C@H](C1)[C@H]1CN(C(=O)c3ccc4[nH]nnc4c3)C[C@@H]21 [Example 1.104, (1H-benzotriazol-5-yl)-{(3aS,3bS,6aR,6bR)-5-[5-cyclopropyl-6-(2,2,2-trifluoro-ethoxy)-pyridine-3-carbonyl]-octahydro-cyclobuta[1,2-c;3,4-c′]dipyrrol-2-yl}-methanone] | 0.01 µM
20 | O=C(c1ccc2[nH]nnc2c1)N1C[C@@H]2[C@H](C1)[C@H]1CN(C(=O)c3cc(OCC(F)(F)F)c(C4CC4)cn3)C[C@@H]21 [Example 1.094, (1H-benzotriazol-5-yl)-{(3aS,3bR,6aS,6bR)-5-[5-cyclopropyl-4-(2,2,2-trifluoro-ethoxy)-pyridine-2-carbonyl]-octahydro-cyclobuta[1,2-c;3,4-c′]dipyrrol-2-yl}-methanone] | 0.077 µM
21 | O=C(c1cnc(OCC(F)(F)F)c(-c2ccco2)c1)N1C[C@@H]2[C@H](C1)[C@H]1CN(C(=O)c3ccc4[nH]nnc4c3)C[C@@H]21 [Example 1.108, (1H-benzotriazol-5-yl)-{(3aS,3bS,6aR,6bR)-5-[5-furan-2-yl-6-(2,2,2-trifluoro-ethoxy)-pyridine-3-carbonyl]-octahydro-cyclobuta[1,2-c;3,4-c′]dipyrrol-2-yl}-methanone] | 0.006 µM
22 | CS(=O)(=O)c1cc(C(=O)N2C[C@@H]3[C@H]4CN(C(=O)c5ccccc5)C[C@H]4[C@@H]3C2)cnc1OCC(F)(F)F [Example 1.111, {(3aS,3bS,6aR,6bR)-5-[5-methanesulfonyl-6-(2,2,2-trifluoro-ethoxy)-pyridine-3-carbonyl]-octahydro-cyclobuta[1,2-c;3,4-c′]dipyrrol-2-yl}-phenyl-methanone] | 0.331 µM

Reference: patent US10849881B2, “Octahydro-cyclobuta[1,2-c;3,4-c′]dipyrrol-2-yl” (Hoffmann-La Roche Inc., priority 2013, dated 2020)
